Laboratory results as given in US9050353B2, “Use of icariin and epimedium flavonoids containing icariin to treat diseases associated with myelin sheath lesion” (Xuanwu Hospital of Capital Medical University, priority 2010, dated 2015).

Key:
[1] = test system: myeloid tissue myelinoclasis in EAE mice model; test: Myelinoclasis of myeloid tissue, LFB staining, EAE mice; format: in vivo; details: scale 0-4
Procedure: (§1) Preparation of mice model and administration: experimental autoimmune encephalomyelitis (EAE) mice model is an important tool for studying various human demyelinating diseases of nervous system. In the present experiment, the preparation of EAE mice model was performed by immunizing female C57BL/6J mice with myelin sheath oligodendroglial cell surface glycoprotein MOG35-55. That is, the mice were subcutaneously injected at dorsal part of spinal column with 0.2 mL of MOG35-55 antigen elixir, and 0.2 ml of bordetella pertussis solution was intraperitoneally injected at the time of immunization injection and 48 h thereafter, respectively. Icariin was intragastrically administered after the last injection of bordetella pertussis solution, for consecutive 3 weeks.
Experimental objective: the myelinoclasis of myeloid tissue of EAE model mice were assayed by Luxol Fast Blue (LFB) staining, and the intervention effects of icariin on this pathological change were studied.
Experimental method: the mice were anesthetized with 10% chloral hydrate on the 29th day of experiment, fixed by perfusion of 4% paraformaldehyde, myeloid tissues were taken for making paraffin sections, section thickness […]. Stained with LFB, observed under microscope, and scored according to the following standard: 0 score, absence of myelinoclasis; 1 score, one small range of myelinoclasis; 2 score, 2 or 3 small ranges of myelinoclasis; 3 score, 1 to 2 large ranges of myelinoclasis; 4 score, large ranges of myelinoclasis accumulatively existing in 20% or more of white matter regions.

[2] = test system: myelin basic protein (MBP); test: Spinal cord MBP by Western blot, EAE mice; format: in vivo
Procedure: as §1
(§2) Experimental objective: myelin sheath is formed with prominences of oligodendroglial cells. CNPase, myelin basic protein (MBP) are marker proteins of mature oligodendroglial cells. The present experiment was to observe the expression of CNPase and MBP to represent the content of oligodendroglial cells in spinal cord of EAE model mice by Western blot method; and to study the effects of icariin on it.
(§3) Experimental method: the mice were anesthetized and sacrificed, fresh spinal cord was taken on ice, total protein was extracted by cleavage on ice, to prepare Western blot sample, added separately with CNPase, MBP primary antibodies and incubated, added with corresponding secondary antibodies, ECL colorated, Kodak film exposed. Pictures were analyzed with Image J software and standardized with β-actin.

[3] = test system: inflammatory cell infiltration in spinal cord tissues of EAE mice model; test: Inflammatory cell infiltration in spinal cord, HE staining, EAE mice; format: in vivo; details: scale 0-4
Procedure: as §1
Experimental objective: the pathological changes of spinal cord in EAE model, especially inflammatory cell infiltration situations was assayed by hematoxylin-eosin (HE) staining test, and the intervention effects of […] on these pathological changes were observed.
Experimental method: the mice were anesthetized with 10% chloral hydrate on the 28th day of experiment, fixed by perfusion of 4% paraformaldehyde, spinal cord tissues were taken for making paraffin sections, section thickness […]. Stained with HE, observed under microscope, and scored according to the following standard: 0 score, absence of cell infiltration; 1 score, spinal meninge cell infiltration; 2 score, 1 to 4 small ranges of cell infiltration around vessels; 3 score, 5 or more small ranges of cell infiltration around vessels, or one or more accumulatively substantial large range of cell infiltration; 4 score, a large number of cell infiltration ranges accumulatively existing in 20% or more of white matter regions.

[4] = test system: peripheral blood CD4+ and CD8+ T cells; test: Peripheral blood T cell subgroup by flow cytometer, EAE mice; format: in vivo
Procedure: as §1
Experimental objective: one common feature of autoimmune diseases is the […]. In this experiment, the numbers of CD4+ and CD8+ cells in peripheral blood T cell subgroup of EAE mice mode were measured by flow cytometer (FACS), and the ratio of them was obtained; and the effects of icariin on these changes were observed.
Experimental method: mice were anesthetized with pentobarbital sodium, blood sample was taken from abdominal aorta, stood at room temperature for 2 h, centrifuged at 3000 rpm for 20 min, and cells were taken, added with anti-CD4+, CD8+ T cell antibodies with different markers, then the percentages of CD4+, CD8+ cells in T lymphocytes were measured by flow cytometer, and the CD4+/CD8+ T cells ratio was calculated.

IL-1 = test: Serum IL-1 content by ELISA, EAE mice; format: in vivo
Procedure: as §1
(§4) Experimental objective: interleukin-1 (IL-1) and IL-6 are important inflammatory cytokines, and have promoting effects on inflammatory reactions. This experiment used enzyme linked immunosorbent assay (ELISA) to measure contents of IL-1 and IL-6 in serums of EAE mice model, and the effects of icariin on these contents were observed.
(§5) Experimental method: mice were anesthetized with pentobarbital sodium, blood sample was taken from abdominal aorta, stood at room temperature for 2 h, centrifuged at 3000 rpm for 20 min, and supernatant was taken, stored at −80° C. for use. The operation was performed strictly according to the steps of specification of ELISA kit. Optical density was measured with ELIASA at 450 nm. The corresponding contents of IL-1 and IL-6 were calculated with the measured OD values on standard curves.

CNPase = test: Spinal cord CNPase by Western blot, EAE mice; format: in vivo
Procedure: as §1, §2, §3

[5] = test system: experimental autoimmune encephalomyelitis (EAE) mice model; test: Nervous function damage score in EAE mice model; format: in vivo, C57BL/6J mice; details: peak of attack, scale 0-5
Procedure: as §1
Nervous function test method: the ethological changes of mice were observed by two experimenters every day using blind method. Scoring standard: 0 score, absence of symptom; 1 score, decrease of tail tension, evident slight gait awkward; 2 score, disappearance of tail tension, moderate gait abnormal, deficient in maintaining gesture; 3 score, limb strength weak; 4 score, limb paralysis; 5 score, near death or died.

IL-6 = test: Serum IL-6 content by ELISA, EAE mice; format: in vivo
Procedure: as §1, §4, §5

COc1ccc(-c2oc3c(CC=C(C)C)c(OC4OC(CO)C(O)C(O)C4O)cc(O)c3c(=O)c2OC2OC(C)C(O)C(O)C2O)cc1 (stereo not drawn) [icariin, 3-((6-deoxymannopyranosyl)oxy)-7-(glucopyranosyloxy)-5-hydroxy-2-(4-methoxyphenyl)-8-(3-methyl-2-butenyl)-4H-1-benzopyran-4-ketone]
Myelinoclasis (LFB staining score) ([1]; 3 mg/kg): 0.91 ± 0.21
Myelinoclasis (LFB staining score) ([1]; 10 mg/kg): 0.78 ± 0.16
Myelinoclasis (LFB staining score) ([1]; 30 mg/kg): 0.66 ± 0.20
MBP/actin Integration grey level ([2]; 3 mg/kg): 0.98 ± 0.13
MBP/actin Integration grey level ([2]; 10 mg/kg): 1.07 ± 0.08
MBP/actin Integration grey level ([2]; 30 mg/kg): 1.11 ± 0.06
Inflammatory cell infiltration (HE staining score) ([3]; 3 mg/kg): 2.08 ± 0.09
Inflammatory cell infiltration (HE staining score) ([3]; 10 mg/kg): 1.58 ± 0.16
Inflammatory cell infiltration (HE staining score) ([3]; 30 mg/kg): 1.18 ± 0.21
CD4 + T cells ([4]; 3 mg/kg): 52.78 ± 3.30%
CD4 +/CD8 + ratio ([4]; 3 mg/kg): 1.25 ± 0.20
CD8 + T cells ([4]; 3 mg/kg): 42.61 ± 3.10%
CD4 + T cells ([4]; 10 mg/kg): 58.89 ± 1.27 %
CD4 +/CD8 + ratio ([4]; 10 mg/kg): 1.62 ± 0.06
CD8 + T cells ([4]; 10 mg/kg): 36.43 ± 0.38 %
CD4 + T cells ([4]; 30 mg/kg): 55.81 ± 1.41%
CD4 +/CD8 + ratio ([4]; 30 mg/kg): 1.39 ± 0.12
CD8 + T cells ([4]; 30 mg/kg): 40.20 ± 1.79%
IL-1 content (IL-1; 3 mg/kg): 0.119 ± 0.003 pg/mL
IL-1 content (IL-1; 10 mg/kg): 0.114 ± 0.001 pg/mL
IL-1 content (IL-1; 30 mg/kg): 0.113 ± 0.002 pg/mL
CNPase/actin Integration grey level (CNPase; 3 mg/kg): 1.16 ± 0.04
CNPase/actin Integration grey level (CNPase; 10 mg/kg): 1.28 ± 0.07
CNPase/actin Integration grey level (CNPase; 30 mg/kg): 1.33 ± 0.05
Nervous function damage score ([5]; 3 mg/kg intragastric): 0.57 ± 0.49
Nervous function damage score ([5]; 10 mg/kg intragastric): 0.32 ± 0.52
Nervous function damage score ([5]; 30 mg/kg intragastric): 0.13 ± 0.34
IL-6 content (IL-6; 3 mg/kg): 0.147 ± 0.011 pg/mL
IL-6 content (IL-6; 10 mg/kg): 0.142 ± 0.013 pg/mL
IL-6 content (IL-6; 30 mg/kg): 0.126 ± 0.011 pg/mL
